# Legend:
# Assay type in all cases: in vivo
# interferon (IFN)-γ = test: IFN-γ expression after MA (western blot); conditions: p.o.; AME 50, EBS 20, rottlerin 20 mg/kg; MA 8 mg/kg i.p. x4; GPx-1 (+/+) and (−/−) mice
# Experimental: (§1) The mice received four times of MA (8 mg/kg, ip) or saline as a 2 hr-time interval. Chemicals (AME, EBS, and PKC inhibitors) were administrated for 5 consecutive days (twice daily), and were given 2 times at 4 hr and 30 min before the first MA injection as shown in the experimental schedule. Animals were sacrificed at 4 hrs and 3 days after the final MA administration.
# (§2) The western blot assays was performed as described previously (Kim et al., 2003). Tissues were homogenized in lysis buffer, containing 200 mM Tris HCl (pH 6.8), 1% SDS, 5 mM EGTA (ethylene glycol tetraacetic acid), 5 mM EDTA (ethylenediaminetetraacetic acid), 10% glycerol, 1× phosphatase inhibitor cocktail I, 1× protease inhibitor cocktail. Lysate was centrifuged at 12,000×g for 30 min and supernatant fraction was used for Western blot analysis. Proteins (20-50 ug/lane) were separated by 6%, 8%, 10% or 15% sodium dodecyl sulfate-polyacrylamide gel electrophoresis and transferred onto the PVDF membranes. Following transfer, the membranes were preincubated with 5% non-fat milk and incubated overnight at 4° C. with primary antibody against β-actin (1:50000, Sigma, St. Louis, Mo., USA), TH (1:5000, Chemicon), TH phosphor-Ser 19 (1:1000, Chemicon,), TH phosphor-Ser 31 (1:500, Chemicon), TH phosphor-Ser 40 (1:500, Chemicon), F4/80 (1:500, Serotec), GPx1 (1:2500, AbFrontier), PKC (1:5000, Santa Cruz biotechnology, Santa Cruz, Calif., USA), p53 (1:5000, Cell signaling, Beverly, Mass., USA), MDM2 (1:1000, BD Pharmingen, San Jose, Calif., USA), MDM2 phospho-Ser 166 (1:1000, cell signaling), BDNF (1:500, Chemicon), GDNF (1:250, Santa Cruz), COX-2 (1:2000, Cayman, Ann Arbor, MC, USA), IL-6 (1:2000, Abcam, Cambridge, Mass., USA), TNF-a (1:1000, R&D Systems, Mckinley place NE, NM, USA), IFN-γ (1:500, Chemicon) or Iba-1 (1:500, Wako, Osaka, Japan). And then, membranes were incubated with HRP-conjugated secondary anti-rabbit IgG (1:1000, GE healthcare, Piscataway, N.J., USA), anti-mouse IgG (1:1000, Sigma) or anti-goat IgG (1:1000, Sigma) for 2 h. […]
# [1] = system: GPx-1 (+/+)- and GPx-1 (−/−)-mice; test: MA-induced hyperthermia (rectal temperature); conditions: MA 8 mg/kg i.p. x4
# Experimental: as §1
# Rectal temperature was measured in the MA- or saline-treated mice. Measurement was performed at constant daytime intervals starting at 9:00 A.M. to avoid the influence on circadian variations. Rectal temperature was measured by inserting a thermometer probe lubricated with oil at least 3 cm into the rectum of the mice. To prevent sudden movements occurring especially in MA-treated mice, animals were gently handled with a wool glove while their tail was moved to allow the probe insertion. This was done to prevent the effects of restrain stress on rectal temperature. When the attempt to insert probe was not successful (i.e., sudden movements of the animal or the need to restrain the mouse), the animal was excluded from the groups.
# [2] = system: tyrosine hydroxylase (TH); test: Striatal tyrosine hydroxylase (TH) activity after MA; conditions: p.o.; AME 50, EBS 20, rottlerin 20 mg/kg; MA 8 mg/kg i.p. x4; GPx-1 (+/+) and (−/−) mice
# Experimental: as §1
# TH activity was measured according to the method of Lucock et al. with some modification (Duan et al., 2005). Briefly, striatum was lysed in 400 μl TH working solution (1-tyrosine: 300 μmol/L; FeSO4: 1 mmol/L; NaAC: 200 mmol/L; NSD-1050:500 won; DTT: 1 mmol/L; MES: 40 mmol/L, pH 5.2-5.6) with freezing-thawing repeatedly for three times. The lysate was reacted for 3 h at 25° C. The reaction was stopped by 0.4 mol/L perchloric acid, and then reactant was centrifuged at 14,000×g for 10 min. Supernatants were collected to assay the amounts of 1-dopa by HPLC-ECD. The activity of TH was expressed as that amount of 1-dopa per minute and per gram of wet tissue.
# [3] = system: Iba-1 (a marker of microgliosis); test: Iba-1 expression after MA (western blot); conditions: p.o.; AME 50, EBS 20, rottlerin 20 mg/kg; MA 8 mg/kg i.p. x4; GPx-1 (+/+) and (−/−) mice
# Experimental: as §1, §2
# [4] = system: dopamine (DA), DOPAC, HVA; test: Striatal DA, DOPAC and HVA after MA (HPLC); conditions: p.o.; AME 50, EBS 20, rottlerin 20 mg/kg; MA 8 mg/kg i.p. x4; GPx-1 (+/+) and (−/−) mice
# Experimental: as §1
# At 3 day after last MA injection, mice were killed by cervical dislocation and the brains were removed. Striatum was dissected and immediately frozen on dry ice, and stored at −70° C. until extraction. Striatum obtained from each animal was weighed, ultrasonicated in 10% perchloric acid containing 10 ng/mg of the internal standard dihydroxybenzylamine, and centrifuged at 20,000×g for 10 min. The levels of DA and its metabolites 3,4-dihydroxyphenylacetic acid (DOPAC) and homovanillic acid (HVA) in brain tissue extracts were determined by HPLC coupled with electrochemical detection as described (Kim et al., 1999). The 20 μl aliquot of the supernatant was injected into the HPLC equipped with a 3 μm C18 column. The mobile phase was comprised of 26 ml of acetonitrile, 21 ml of tetrahydrofuran and 960 ml of 0.15M monochloroacetic acid (pH 3.0) containing 50 mg/l of EDTA and 200 mg/l of sodium octyl sulfate. The amount of DA, DOPAC and HVA were determined by comparison of peak area of tissue sample with standard, and were expressed in nanograms per gram of wet tissue.
# cyclooxygenase (COX)-2 = test: COX-2 expression after MA (western blot); conditions: p.o.; AME 50, EBS 20, rottlerin 20 mg/kg; MA 8 mg/kg i.p. x4; GPx-1 (+/+) and (−/−) mice
# Experimental: as §1, §2
# cleaved PKCδ = test: Striatal cleaved PKCδ expression after MA (western blot); conditions: MA 8 mg/kg i.p. x4, GPx-1 (+/+) and (−/−) mice; for effect on MA-induced striatal cleaved PKCδ expression: p.o., AME 25 or 50, EBS 10 or 20, rottlerin 10 or 20 mg/kg
# Experimental: as §1
# Tissues were homogenized in lysis buffer, containing 200 mM Tris HCl (pH 6.8), 1% SDS, 5 mM EGTA (ethylene glycol tetraacetic acid), 5 mM EDTA (ethylenediaminetetraacetic acid), 10% glycerol, 1× phosphatase inhibitor cocktail I, 1× protease inhibitor cocktail. Lysate was centrifuged at 12,000×g for 30 min and supernatant fraction was used for Western blot analysis. […] And then, membranes were incubated with HRP-conjugated secondary anti-rabbit IgG (1:1000, GE healthcare, Piscataway, N.J., USA), anti-mouse IgG (1:1000, Sigma) or anti-goat IgG (1:1000, Sigma) for 2 h. Subsequent visualization was performed using enhanced chemiluminescence system (ECL Plus®, GE healthcare).
# [5] = p.o., AME 25 or 50, EBS 10 or 20, rottlerin 10 or 20 mg/kg (p<0.01 at high dose), GPx-1 (+/+) and (−/−) mice
Compound,effect on MA-induced increase in IFN-γ expression (interferon (IFN)-γ),"effect on MA-induced hyperthermia [1, 5]",effect on MA-induced decrease in TH activity [2],effect on MA-induced increase in Iba-1 expression [3],effect on MA-induced change in DA turnover rate [4],effect on MA-induced change in striatal DA level [4],effect on MA-induced change in striatal DOPAC level [4],effect on MA-induced change in striatal HVA level [4],effect on MA-induced increase in COX-2 expression (cyclooxygenase (COX)-2),effect on MA-induced striatal cleaved PKCδ expression (cleaved PKCδ),"effect on MA-induced hyperthermia ([1]; PKC inhibitors intra-striatal (doses of Table 1), GPx-1 (+/+) and GPx-1 (−/−) mice)",effect on MA-induced increase in striatal cleaved PKCδ expression (cleaved PKCδ; intra-striatal)
"O=c1c2ccccc2[se]n1-c1ccccc1 [EBS, 2-phenyl-1,2-benzisoselenazol-3(2H)-one]",significantly and consistently attenuating effects,attenuated hyperthermia induced by MA in a dose-related manner,decrease in TH activity was attenuated,significantly and consistently attenuating effects,significantly attenuated MA-induced dopaminergic impairment,significantly attenuated MA-induced dopaminergic impairment,significantly attenuated MA-induced dopaminergic impairment,significantly attenuated MA-induced dopaminergic impairment,significantly and consistently attenuating effects,significantly reduced MA-induced the PKCδ- and cleaved PKCδ-expressions in a dose-related manner,,
CC(=O)c1c(O)c(C)c(O)c(Cc2c(O)c3c(c(C(=O)/C=C/c4ccccc4)c2O)OC(C)(C)C=C3)c1O [rottlerin],significantly and consistently attenuating effects,attenuated hyperthermia induced by MA in a dose-related manner,decrease in TH activity was attenuated,significantly and consistently attenuating effects,significantly attenuated MA-induced dopaminergic impairment,significantly attenuated MA-induced dopaminergic impairment,significantly attenuated MA-induced dopaminergic impairment,significantly attenuated MA-induced dopaminergic impairment,significantly and consistently attenuating effects,significantly reduced MA-induced the PKCδ- and cleaved PKCδ-expressions in a dose-related manner,significantly blocked MA-induced hyperthermia in a dose-dependent manner,attenuated the MA-induced increases in PKCδ expressions in a dose-dependent manner
"CC(=O)Oc1ccccc1C(=O)Oc1c(C)occc1=O [AME, 3-(2-methyl-4-pyronyl)-2-acetyloxybenzoate]",significantly and consistently attenuating effects,attenuated hyperthermia induced by MA in a dose-related manner,decrease in TH activity was attenuated,significantly and consistently attenuating effects,significantly attenuated MA-induced dopaminergic impairment,significantly attenuated MA-induced dopaminergic impairment,significantly attenuated MA-induced dopaminergic impairment,significantly attenuated MA-induced dopaminergic impairment,significantly and consistently attenuating effects,significantly reduced MA-induced the PKCδ- and cleaved PKCδ-expressions in a dose-related manner,,
